These results are taken from US4451467A, “4(3H)-Quinazolinone derivatives, process for production thereof, and pharmaceutical compositions comprising said compounds” (Ishikawa; Masayuki, priority 1981, dated 1984).

Molecules are shown by their SMILES.

Broadly, the LD50 is the dose expected to kill half of the subjects tested. Lower therefore signals greater toxicity.

What all share (format): in vivo
Series [1] concerns normotensive dogs anesthetized with pentobarbital sodium. As to the kind of experiment: Hypotensive effect on anesthetized dogs (intravenous). As to conditions: i.v.; for hypotensive effect in anesthetized dogs (in words): same conditions as Table II, dose under 100 μg/kg; for Hypotensive Effect Δ(mmHg): anesthetized dogs, mean value.
Experimental: Groups of three to four normotensive dogs anesthetized with pentobarbital sodium were used in the experiments. The test compounds were dissolved in a minimum amount of ethanol, and the solutions were administered intravenously in the vein cannulated with a polyethylene tube. The mean blood pressures in the carotid artery were recorded using a pressure transducer and a recorder. The hypotensive effect in Table II are a mean value obtained from at least three to four experiments.
Series [2] concerns male spontaneously hypertensive rats (Wister Kyoto origin). As to the kind of experiment: Hypotensive effect on conscious spontaneously hypertensive rats (oral). As to conditions: Rattus norvegicus, tail-cuff method, read-out: pD30 (dose which decreases systolic blood pressure by 30 mmHg). As to the method: (b) Hypotensive effect on conscious spontaneously hypertensive rate
The test compounds were orally administered to groups of four to five of male spontaneously hypertensive rats (Wister Kyoto origin) weighing about 300 g and aged 15 to 20 weeks. The systolic blood pressure was measured by the tail-cuff method using a plethysmograph.

The nature of series [3]: Test for acute toxicity (oral, rats). Particulars: rat, in vivo, rats, 8 days. From the text:
(§1) A suspension of a test compound in 0.5% CMC aqueous solution containing Tween 80 was orally administered to rats, and during 8 days the number of dead rats was counted.

The subject of another series is rats. As to the kind of experiment: Test for acute toxicity (oral, rats). Particulars: for number of dead rats [drawing 15]: 8 days.
From the text: as §1

`CCOC(=O)c1c(C)cc2nc(C)n(-c3ccccc3Cl)c(=O)c2c1C` [3-(2-chlorophenyl)-6-ethoxycarbonyl-2,5,7-trimethyl-4(3H)-quinazolinone, reference compound]: the “hypotensive effect in anesthetized dogs (in words)” value (from here on “hypotensive effect … (in words)”) in series [1] was “did not exhibit a hypotensive effect”.
With `CCNC(=O)OCc1nc2cc(C)c(C(=O)OCC)c(C)c2c(=O)n1-c1ccccc1Cl` [Compound 9], the ED (30 mmHg) in series [2] amounted to 0.35 mg/kg. The “Hypotensive Effect Δ(mmHg)” value is 22 mmHg in series [1] (dose 1.0 μg/kg) and 42 mmHg in series [1] (dose 3.0 μg/kg).
With `CCCNC(=O)OCc1nc2cc(C)c(C(=O)OCC)c(C)c2c(=O)n1-c1ccccc1Cl` [Compound 10], the “Hypotensive Effect Δ(mmHg)” value is given as 10 mmHg in series [1] (dose 1.0 μg/kg) and 25 mmHg in series [1] (dose 3.0 μg/kg).
Take `CCOC(=O)c1c(C)cc2nc(COC(=O)NC(C)C)n(-c3ccccc3F)c(=O)c2c1C` [Compound 18]: the “Hypotensive Effect Δ(mmHg)” value in series [1] (dose 1.0 μg/kg) is on record as 5 mmHg; in series [1] (dose 3.0 μg/kg), 10 mmHg; in series [1] (dose 10 μg/kg) it was 28 mmHg.
For the molecule `CCOC(=O)c1c(C)cc2nc(COC(=O)NC(C)C)n(-c3ccccc3Cl)c(=O)c2c1C` [Compound 2, 3-(2-chlorophenyl)-6-ethoxycarbonyl-5,7-dimethyl-2-(N-isopropylcarbamoyloxymethyl)-4(3H)-quinazolinone], the ED (30 mmHg) in series [2] was determined as 0.42 mg/kg. The “Hypotensive Effect Δ(mmHg)” value in series [1] (dose 1.0 μg/kg) worked out at 24 mmHg; in series [1] (dose 3.0 μg/kg), 48 mmHg.
`CCNC(=O)OCc1nc2cc(C)c(C(=O)OCC)c(C)c2c(=O)n1-c1ccccc1[N+](=O)[O-]` [Compound 28]: the “Hypotensive Effect Δ(mmHg)” value in series [1] (dose 1.0 μg/kg) turned out to be 0 mmHg; in series [1] (dose 3.0 μg/kg), 6 mmHg; in series [1] (dose 10 μg/kg), 9 mmHg; in series [1] (dose 30 μg/kg), 25 mmHg.
For `CCOC(=O)c1c(C)cc2nc(COC(=O)NC(C)C)n(-c3ccccc3Br)c(=O)c2c1C` [Compound 19], the “Hypotensive Effect Δ(mmHg)” value in series [1] (dose 1.0 μg/kg) is listed as 20 mmHg; in series [1] (dose 3.0 μg/kg), 35 mmHg.
Regarding `CCOC(=O)c1c(C)cc2nc(COC(=O)NC(C)C)n(-c3ccccc3C(F)(F)F)c(=O)c2c1C` [Compound 27], the “Hypotensive Effect Δ(mmHg)” value in series [1] (dose 1.0 μg/kg) stood at 0 mmHg; in series [1] (dose 3.0 μg/kg), 0 mmHg; in series [1] (dose 10 μg/kg), 8 mmHg; in series [1] (dose 30 μg/kg) it was 18 mmHg; in series [1] (dose 100 μg/kg), 25 mmHg.
As to `CCOC(=O)c1c(C)cc2nc(COC(=O)NC(C)C)n(-c3ccccc3C)c(=O)c2c1C` [Compound 23], the “Hypotensive Effect Δ(mmHg)” value in series [1] (dose 1.0 μg/kg) is 8 mmHg; in series [1] (dose 3.0 μg/kg), 25 mmHg.
Consider `CCOC(=O)c1c(C)cc2nc(COC(=O)N(C)C)n(-c3ccccc3Cl)c(=O)c2c1C.Cl` [Compound 3, 3-(2-chlorophenyl)-2-(N,N-dimethylcarbamoyloxymethyl)-6-ethoxy-carbonyl-5,7-dimethyl-4(3H)-quinazolinone hydrochloride], for which the “Hypotensive Effect Δ(mmHg)” value is 0 mmHg in series [1] (dose 1.0 μg/kg); 0 mmHg in series [1] (dose 3.0 μg/kg); 1 mmHg in series [1] (dose 10 μg/kg); 6 mmHg in series [1] (dose 30 μg/kg); 20 mmHg in series [1] (dose 100 μg/kg).
Consider `CCOC(=O)c1c(C)cc2c(c1C)c(=O)n(-c1ccccc1C(F)(F)F)c(=O)n2CCN(CC)CC` [6-ethoxycarbonyl-3-[2-(trifluoromethyl)phenyl]-5,7-dimethyl-1-[2-(N,N-diethylamino)ethyl]-2,4(1H,3H)-quinazolinedione, reference compound], for which the “hypotensive effect … (in words)” value in series [1] is reported as “did not exhibit a hypotensive effect”.
For the molecule `CCCCNC(=O)OCc1nc2cc(C)c(C(=O)OCC)c(C)c2c(=O)n1-c1ccccc1Cl` [Compound 12], the “Hypotensive Effect Δ(mmHg)” value is recorded as 10 mmHg in series [1] (dose 1.0 μg/kg) and 25 mmHg in series [1] (dose 3.0 μg/kg).
Regarding `CCOC(=O)c1c(C)cc2nc(COC(=O)NC)n(-c3ccccc3Cl)c(=O)c2c1C` [Compound 1, 3-(2-chlorophenyl)-6-ethoxycarbonyl-5,7-dimethyl-2-(N-methylcarbamoyloxymethyl)-4(3H)-quinazolinone], the LD50 at 192 h in series [3] is 2500 mg/kg. Besides, the “toxicity (in words)” value in the series with rats (acute, rats) is given as “very low”. Moreover, the “number of dead rats [drawing 15]” value with rats (dose 1200 mg/Kg) is on record as 2/6; with rats (dose 1715 mg/Kg), 3/6; in the series with rats (dose 2450 mg/Kg), 3/6; in the series with rats (dose 3500 mg/Kg), 3/6; in the series with rats (dose 5000 mg/Kg), 5/6. Moreover, in series [2], the ED (30 mmHg) was found to be 2.8 mg/kg. For the same molecule, the “Hypotensive Effect Δ(mmHg)” value in series [1] (dose 1.0 μg/kg) was found to be 3 mmHg; in series [1] (dose 3.0 μg/kg) it was 6 mmHg; in series [1] (dose 10 μg/kg) it was 22 mmHg; in series [1] (dose 30 μg/kg) it was 43 mmHg; in series [1] (dose 100 μg/kg), 51 mmHg.
With `CCOC(=O)c1c(C)cc2c(c1C)c(=O)n(-c1ccccc1Cl)c(=O)n2CCN(CC)CC` [3-(2-chlorophenyl)-6-ethoxycarbonyl-5,7-dimethyl-1-(2-(N,N-diethylamino)ethyl]-2,4(1H,3H)-quinazolinedione, reference compound], the “hypotensive effect … (in words)” value in series [1] is “did not exhibit a hypotensive effect”.
For the molecule `CCOC(=O)c1c(C)cc2nc(C)n(-c3ccccc3C(F)(F)F)c(=O)c2c1C` [6-ethoxycarbonyl-3-[2-(trifluoromethyl)phenyl]-2,5,7-trimethyl-4(3H)-quinazoline, reference compound], the “hypotensive effect … (in words)” value in series [1] is “did not exhibit a hypotensive effect”.
Consider `COc1ccc(Cc2nccc3cc(OC)c(OC)cc23)cc1OC` [papaverine, reference compound], for which the “hypotensive effect … (in words)” value in series [1] was “did not exhibit a hypotensive effect”.
As to `CCOC(=O)c1c(C)cc2nc(COC(=O)NC(C)(C)C)n(-c3ccccc3Cl)c(=O)c2c1C` [Compound 14], the entries for the “Hypotensive Effect Δ(mmHg)” value in series [1] (dose 1.0 μg/kg), in series [1] (dose 3.0 μg/kg) and in series [1] (dose 10 μg/kg) were 8 mmHg, 10 mmHg and 25 mmHg, respectively.
